Source: BindingDB's records for doi:10.7270/Q2TX3CSC (Vanderbilt Screening Center for GPCRs, Ion Channels and …, 2009)

molecular target: T1, Solute carrier family 12 member 5 (Homo sapiens, UniProt Q9H2X9); experiment: concentration-response of KCC2 transport modulators – cell-based, HEK293 KCC2, FluoZin-2 fluorescence, dose response (AID 1736); conditions: not given
T1 sequence (Q9H2X9 whole entry): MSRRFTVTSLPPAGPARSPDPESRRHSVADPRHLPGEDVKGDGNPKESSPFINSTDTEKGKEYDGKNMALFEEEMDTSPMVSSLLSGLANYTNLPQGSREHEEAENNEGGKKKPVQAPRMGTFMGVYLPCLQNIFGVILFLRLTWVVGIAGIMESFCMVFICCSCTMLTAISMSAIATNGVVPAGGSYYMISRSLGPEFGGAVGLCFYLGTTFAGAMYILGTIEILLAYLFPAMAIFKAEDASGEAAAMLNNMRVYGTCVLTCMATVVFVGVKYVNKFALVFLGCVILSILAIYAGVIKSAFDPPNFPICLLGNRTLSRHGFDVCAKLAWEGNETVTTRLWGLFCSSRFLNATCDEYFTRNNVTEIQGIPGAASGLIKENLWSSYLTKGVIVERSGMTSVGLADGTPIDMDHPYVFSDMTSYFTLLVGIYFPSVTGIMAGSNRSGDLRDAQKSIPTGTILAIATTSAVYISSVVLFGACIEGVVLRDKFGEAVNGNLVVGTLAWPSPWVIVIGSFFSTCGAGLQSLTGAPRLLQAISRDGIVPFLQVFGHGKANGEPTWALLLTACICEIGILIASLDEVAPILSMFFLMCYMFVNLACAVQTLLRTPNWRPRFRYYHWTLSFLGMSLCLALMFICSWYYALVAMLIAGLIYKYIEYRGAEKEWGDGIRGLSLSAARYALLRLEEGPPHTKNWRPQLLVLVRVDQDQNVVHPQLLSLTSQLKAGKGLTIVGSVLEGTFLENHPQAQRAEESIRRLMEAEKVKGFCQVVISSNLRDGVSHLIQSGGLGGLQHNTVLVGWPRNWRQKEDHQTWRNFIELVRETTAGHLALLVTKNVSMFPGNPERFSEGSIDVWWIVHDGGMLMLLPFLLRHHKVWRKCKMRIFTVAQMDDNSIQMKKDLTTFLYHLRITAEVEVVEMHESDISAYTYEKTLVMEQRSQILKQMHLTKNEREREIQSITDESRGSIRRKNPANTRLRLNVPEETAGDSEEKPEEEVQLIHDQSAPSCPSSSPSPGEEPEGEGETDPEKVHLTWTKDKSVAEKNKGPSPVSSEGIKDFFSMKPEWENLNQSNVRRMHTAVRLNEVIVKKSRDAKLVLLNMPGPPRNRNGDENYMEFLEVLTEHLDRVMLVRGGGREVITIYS

EC50 [µM] | Structure (SMILES)
37.5 | Cc1cccc(OCCc2nnc(N)s2)c1C [5-[2-(2,3-Dimethyl-phenoxy)-ethyl]-[1,3,4]thiadiazol-2-ylamine]
23.8 | COc1cc(C=NN(C)c2ccccc2)ccc1O
23.6 | O=[N+]([O-])c1ccccc1C=C[CH+][N-]n1c(-c2ccc(Cl)cc2)n[nH]c1=S [MLS000555506]
6.33 | O=C(C1CC1)N1CCc2cc(S(=O)(=O)NC3CCN(Cc4ccccc4)CC3)ccc21 [1-[cyclopropyl(oxo)methyl]-N-[1-(phenylmethyl)-4-piperidinyl]-2,3-dihydroindole-5-sulfonamide]
3.2 | CCc1cc(C(=O)N2CCCC(CNC(=O)c3ccc(-c4ccccc4)cc3)C2)no1 (stereo unspecified) [MLS000731765]
2.8 | CNC(=O)/C(=C\C=C\c1ccccc1)NC(=O)c1ccc([N+](=O)[O-])cc1 [MLS000570424]
1.75 | Sc1nnc(CNc2cccc(Cl)c2)o1 [5-[(3-chloroanilino)methyl]-3H-1,3,4-oxadiazole-2-thione]
1.38 | CCc1ccc(OCCNC(=O)c2ccccc2SCc2ccc(F)cc2)cc1 [MLS000577152]
14.3 | O=C(OCc1ccccn1)c1ccc(COc2ccccc2Cl)o1 [5-(2-Chloro-phenoxymethyl)-furan-2-carboxylic acid pyridin-2-ylmethyl ester]
212 | O=C(CC(Cc1ccccc1)c1ccco1)NC1CCCCC1 (stereo unspecified) [MLS000556612]
20 | COc1ccccc1N1CCN(C(=S)NC(=O)/C=C/c2ccccc2)CC1 [(E)-N-[4-(2-Methoxy-phenyl)-piperazine-1-carbothioyl]-3-phenyl-acrylamide]
1770 | O=C(CC(C(=O)N1CCc2ccccc21)n1ccnc1)N1CCc2ccccc2C1 (stereo unspecified) [1-(2,3-dihydroindol-1-yl)-4-(3,4-dihydro-1H-isoquinolin-2-yl)-2-(1-imidazolyl)butane-1,4-dione]
4060 | CCOc1ccc(C(CC(=O)O)NC(=O)C(Sc2ccccc2)c2ccccc2)cc1 (stereo unspecified) [3-(4-ethoxyphenyl)-3-[(2-phenyl-2-phenylsulfanyl-ethanoyl)amino]propanoic acid]
2.43 | CN(Cc1ccccc1)c1nc2nonc2nc1N1CCCC(CN2CCCC2=O)C1 (stereo unspecified) [1-[(1-{6-[benzyl(methyl)amino][1,2,5]oxadiazolo[3,4-b]pyrazin-5-yl}piperidin-3-yl)methyl]pyrrolidin-2-one]
11.8 | Cc1ccc(/C=C2\SC(=S)N(/N=C/C3C=C([N+](=O)[O-])C=CC3=O)C2=O)o1 (stereo unspecified) [(5Z)-5-[(5-methylfuran-2-yl)methylidene]-3-[[(E)-(3-nitro-6-oxocyclohexa-2,4-dien-1-ylidene)methyl]amino]-2-sulfanylidene-1,3-thiazolidin-4-one]
2.11 | CN(C)S(=O)(=O)c1ccc(Cl)c(C(=O)Nc2nc3ccccc3[nH]2)c1 [SMR000370637]

EC50 [µM] | Structure (SMILES)
3.48 | O=C(CSc1ccc(-c2ccccc2)nn1)Nc1ccc2c(c1)OCCO2 [MLS000724887]
0.449 | CC(C)(C)NC(=O)C(c1cccs1)N(CC1CCCO1)C(=O)c1ccc(-c2ccccc2)[nH]1 (stereo unspecified) [N-[2-(tert-butylamino)-2-oxo-1-thiophen-2-ylethyl]-N-(2-oxolanylmethyl)-5-phenyl-1H-pyrrole-2-carboxamide]
9.34 | Sc1nnc(COc2ccc(Cl)cc2)o1 [5-(4-Chloro-phenoxymethyl)-3H-[1,3,4]oxadiazole-2-thione]
129 | CC1Cc2ccccc2N1C(=O)/C=C/c1cccc(F)c1 (stereo unspecified) [(E)-3-(3-fluorophenyl)-1-(2-methyl-2,3-dihydroindol-1-yl)-2-propen-1-one]
69.7 | O=C(C1CCN(S(=O)(=O)c2cccc3nsnc23)CC1)N1CCc2ccccc2C1 [2-{[1-(2,1,3-benzothiadiazol-4-ylsulfonyl)piperidin-4-yl]carbonyl}-1,2,3,4-tetrahydroisoquinoline]
174 | O=C(NCCc1csc(-c2ccccc2)n1)c1cccs1 [MLS000102716]
0.13 | Cc1ccc(/C=C2\SC(=S)N(c3c(C)n(C)n(-c4ccccc4)c3=O)C2=O)cc1 [3-(1,5-dimethyl-3-oxo-2-phenyl-2,3-dihydro-1H-pyrazol-4-yl)-5-(4-methylbenzylidene)-2-thioxo-1,3-thiazolidin-4-one]
1.14 | CC12CC3(C)CC(C)(C1)CC(C(=O)NC(=S)N1CCCC1)(C2)C3 [3,5,7-trimethyl-N-pyrrolidin-1-ylcarbothioyl-adamantane-1-carboxamide]
2.66 | O=C(O)CC/C(=C\c1ccc(N2CCOCC2)c([N+](=O)[O-])c1)c1nc2ccccc2s1 [(E)-4-(1,3-benzothiazol-2-yl)-5-(4-morpholin-4-yl-3-nitro-phenyl)pent-4-enoic acid]
47.6 | S=C(NCCc1ccccc1)NN=Cc1cccc(Cl)c1Cl [1-[(2,3-dichlorobenzylidene)amino]-3-phenethyl-thiourea]
34.5 | O=C(CSc1ncccc1-c1nc2ccccc2[nH]1)N1CCN(c2ccccc2F)CC1 [MLS000033700]
0.0665 | O=c1[nH]c2c(s1)C(c1ccccc1)c1c(c(O)n(-c3ccccc3)c1O)S2 (stereo unspecified)
6.74 | O=S1(=O)N=C(N2CCN(Cc3ccccc3)CC2)c2ccccc21 [3-(4-Benzyl-piperazin-1-yl)-benzo[d]isothiazole 1,1-dioxide]
221 | O=[N+]([O-])c1cc(-n2c(O)c3c(c2O)CCCC3)ccc1NC1CCN(Cc2ccccc2)CC1 [2-[3-nitro-4-[[1-(phenylmethyl)-4-piperidinyl]amino]phenyl]-3a,4,5,6,7,7a-hexahydroisoindole-1,3-dione]
15.1 | COc1ccc(-n2cnnc2SCC(=O)Nc2cc(S(=O)(=O)N3CCCCC3)ccc2C)cc1 [2-[[4-(4-methoxyphenyl)-1,2,4-triazol-3-yl]sulfanyl]-N-(2-methyl-5-piperidin-1-ylsulfonyl-phenyl)ethanamide]

same assay, conditions: inactive by the depositor's call

EC50 [µM] | Structure (SMILES)
330 | O=C(COc1ccc2ccccc2c1)NN=Cc1ccccn1 [2-(2-naphthalenyloxy)-N-(2-pyridinylmethylideneamino)acetamide]
1410 | COc1ccc(-c2nc(C[S+]([O-])CC(=O)N3CCc4ccccc4C3)c(C)o2)cc1 (stereo unspecified) [1-(3,4-dihydro-1H-isoquinolin-2-yl)-2-[[2-(4-methoxyphenyl)-5-methyl-1,3-oxazol-4-yl]methylsulfinyl]ethanone]
67.2 | CN(C)CCn1c(=S)[nH]c2ccc(Cl)cc2c1=O [6-chloro-3-[2-(dimethylamino)ethyl]-2-thioxo-2,3-dihydroquinazolin-4(1H)-one]
3.68 | O=C(/C=C/c1cccc([N+](=O)[O-])c1)Nc1cccc(NC(=O)c2cccs2)c1 [MLS000574752]
18.7 | O=C(NCCCn1ncc2ccccc21)c1cc(COc2c(F)cccc2F)on1 [5-[(2,6-difluorophenoxy)methyl]-N-(3-indazol-1-ylpropyl)-1,2-oxazole-3-carboxamide]
8.17 | CN(c1ccccc1)c1ccc(/C=C(\CCC(=O)O)c2nc3ccccc3s2)cc1[N+](=O)[O-]
2.68 | CC(/C=C1\SC(=S)N(C(C(=O)O)C(C)C)C1=O)=C\c1ccccc1 (stereo unspecified) [MLS000713304]
2.2 | COc1cc(-c2nnc(CSc3nnc(Nc4ccc(C(C)C)cc4)s3)o2)cc(OC)c1OC [MLS000391281]
26.3 | O=C(O)/C=C/c1cn(Cc2ccccc2)nc1-c1ccc(Cl)cc1 [(E)-3-[1-benzyl-3-(4-chlorophenyl)pyrazol-4-yl]acrylic acid]
4.76 | O=C(O)CC/C(=C\c1cccc(NC(=O)c2ccccc2Cl)c1)c1nc2ccccc2s1 [SMR000371789]
